Experimental data published in US20040071683A1, “Methods for treating pervasive development disorders” (priority 1999, published 2004).
No end group written: not given here.

How the values were obtained:
[1] = system: children diagnosed with Autism; settings: secretin given as diagnostic procedure during upper gastrointestinal endoscopy; Horvath et al. 1998; cited from earlier work
[2] = system: autistic children; experiment: CARS (Childhood Autism Rating Scale) test pre- and post-secretin administration (Experiment 1); format: in vivo; settings: 16 autistic children
Method: Upon determining that a given child was likely to benefit from secretin administration based on the results of the fecal chymotrypsin test, the child was administered a CARS (Childhood Autism Rating Scale) test prior to being scheduled for secretin infusion.
(§1) For each of the 16 autistic children tested, a preferred secretin infusion process according to the present invention was performed involving the administering of 1 U/kg of body weight of Secretin-Ferring for a period of nine months at intervals of approximately 6 weeks. In addition, another CARS test was administered to each of the 16 autistic children 3 weeks post secretin administration to determine if their autism had changed post infusion.
(§2) A preferred secretin infusion process includes the initial step of prepping an arm of the candidate child with an IV injection of saline. A test dose of 1U of Secretin-Ferring is then administered to the child. Approximately one minute after infusion, the child is examined for signs of allergic reaction including rash, increased heart rate, and increase of blood pressure. […] Subsequently, each child receives a 1 U/kg of body weight infusion of Secretin-Ferring approximately every 6 weeks for 9 months. It is to be understood that any commercially available form of secretin may be used.

[3] = system: fecal chymotrypsin; experiment: Fecal Chymotrypsin Test after secretin infusion in autistic children (Experiments 1 and 2); format: in vivo
Method: In this experiment, 16 children diagnosed as having autism were administered the following Fecal Chymotrypsin Test in accordance with an embodiment of the invention. First, approximately 2 grams of stool were collected from each child and placed in a sterile container (although it is to be understood that any quantity of stool may be collected, as 2 grams of stool is not a required amount). Each stool sample was then analyzed using, e.g., an enzymatic photospectrometry analysis as is known by those skilled in the art, to determine the level of fecal chymotrypsin in the stool. Although the enzymatic photospectrophotometry process is preferred, any suitable conventional method may be used for measuring the fecal chymotrypsin levels. The measured chymotrypsin levels of the 16 autistic children are illustrated in FIG. 13.
After determining the chymotrypsin levels of the stools, each of these levels were compared with threshold chymotrypsin levels to determine if the child was likely to benefit from secretin administration. By way of example, with the fecal chymotrypsin tests of the stool samples being performed at 30° C., normal levels of chymotrypsin are deemed to lie above 8.4 U/gram, whereas pathologically abnormal levels are deemed to lie below 4.2 U/gram. In addition, chymotrypsin levels between 8.4 U/gram and 4.2 U/gram are considered equivocal, and further testing of the individual's fecal chymotrypsin levels over a period of time should be performed.
as §1
as §2, with “It is to be understood that any commercially available form of secretin may be used.” left out
In this experiment, 37 autistic children with abnormal fecal chymotrypsin levels were administered secretin over the course of 6 months using the secretin infusion process described above. Their fecal chymotrypsin (FC) levels were measured weekly using the fecal chymotrypsin test described above.

Question: What does the source list for “secretin (HSDGTFTSELSRLRDSARLQRLLQGLV; ends and bridges not checked; UniProt P63298 33-59, looked up) [a gastrointestinal peptide hormone]”?
Answer: symptoms associated with Autism after secretin administration [1]: ameliorating the symptoms associated with Autism; CARS fear component post-secretin ([2]; 3 weeks post infusion): increased; CARS component scores post-secretin (all except fear) ([2]; 3 weeks post infusion, FIGS. 2-12): demonstrated improvement; overall CARS scores post-secretin vs pre-secretin ([2]; approximately 3 weeks after first secretin administration, FIG. 1): overall decrease; # Autistic Children w/ Equivocal FC levels ([3]; 6 Months Post-Secretin Administration, of 37 autistic children (0 pre-secretin), equivocal between 8.4 and 4.2 U/gram): 2; # Autistic Children w/ normal FC levels ([3]; 6 Months Post-Secretin Administration, of 37 autistic children (0 pre-secretin), normal above 8.4 U/gram): 34; # Autistic Children w/ Abnormal FC levels ([3]; 6 Months Post-Secretin Administration, of 37 autistic children (37 abnormal pre-secretin), abnormal below 4.2 U/gram): 1; fecal chymotrypsin level post-secretin administration compared with pre-secretin ([3]; each of 16 autistic children, approximately one week after first infusion of 1 U/kg Secretin-Ferring IV, FIG. 14 vs FIG. 13): increased
